Source: ChEMBL document CHEMBL1152921 (Eur J Med Chem, 2009)
One block for each compound: values may come before it. Active and inactive are the calls of the source. The rule behind the calls is not given here. Where a SMILES comes first, the peptide text is derived from it. Bridges are numbered along the chain shown (N, C = ends). [ ]: non-standard residue; d: D form. Aic = NC1(C(=O)O)Cc2ccccc2C1

Key:
Rattus norvegicus [1] = assay: (§1) Antidiuretic activity in fasted and hydrated Wistar rat assessed as compound potency to yield antidiuresis time of 60 mins required for urinary excretion of half the water load at 0.001 to 100 nmol/kg, sc administered immediately after water loading by modified Burn test relative to 1-deamino-8-D-arginine vasopressin; format: functional, Urine
Rattus norvegicus [2] = assay: as §1, with “200” for “60”; format: functional, Urine
Rattus norvegicus [3] = assay: Antidiuretic activity in fasted and hydrated Wistar rat assessed as compound required to yield antidiuresis time of 60 mins required for urinary excretion of half the water load at 0.001 to 100 nmol/kg, sc administered immediately after water loading by modified Burn test; format: functional, Urine
Rattus norvegicus [4] = assay: Antidiuretic activity in fasted and hydrated Wistar rat assessed as compound required to yield antidiuresis time of 200 mins required for urinary excretion of half the water load at 0.001 to 100 nmol/kg, sc administered immediately after water loading by modified Burn test; format: functional, Urine
[5] = target: Vasopressin V1a receptor (Rattus norvegicus) (UniProt P30560); assay: Agonist activity at vasopressin V1a receptor in phenoxybenzamine-treated Wistar rat uterus assessed as arterial vasopressor activity; format: functional, tissue-based
Vasopressin V1a receptor = Vasopressin V1a receptor (Rattus norvegicus, UniProt P30560); assay: Antagonist activity at vasopressin V1a receptor in phenoxybenzamine-treated Wistar rat uterus assessed as inhibition of vasopressin-induced arterial vasopressor activity treated 1 min prior to vasopressin challenge; format: functional, tissue-based; settings: for Kb: read-out: pA2 (converted)
Rattus norvegicus [6] = assay: Activity at vasopressin V1a receptor in phenoxybenzamine-treated Wistar rat uterus assessed as induction of arterial vasopressor activity up to 0.15 mg/kg; format: functional, organism-based; parameters: dose 0.15 mg/kg
Oxytocin receptor = target: T1, Oxytocin receptor (Rattus norvegicus, UniProt P70536); format: functional, tissue-based, Wistar, Uterus
T1 sequence (P70536 whole entry): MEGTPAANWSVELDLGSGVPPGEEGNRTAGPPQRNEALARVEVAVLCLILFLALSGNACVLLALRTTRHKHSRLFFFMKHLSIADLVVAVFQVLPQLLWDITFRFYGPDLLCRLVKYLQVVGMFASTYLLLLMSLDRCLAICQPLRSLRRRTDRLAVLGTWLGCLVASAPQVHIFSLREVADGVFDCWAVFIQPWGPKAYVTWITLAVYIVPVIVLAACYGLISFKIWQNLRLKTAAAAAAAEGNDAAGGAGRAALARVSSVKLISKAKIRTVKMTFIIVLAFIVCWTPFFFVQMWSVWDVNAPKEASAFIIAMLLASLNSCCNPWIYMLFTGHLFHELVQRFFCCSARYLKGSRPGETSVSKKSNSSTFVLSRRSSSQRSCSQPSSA

[7] = Volume of distribution in Wistar rat; format: ADME, organism-based; settings: in vivo

Sequence of Vasopressin V1a receptor (P30560 whole entry): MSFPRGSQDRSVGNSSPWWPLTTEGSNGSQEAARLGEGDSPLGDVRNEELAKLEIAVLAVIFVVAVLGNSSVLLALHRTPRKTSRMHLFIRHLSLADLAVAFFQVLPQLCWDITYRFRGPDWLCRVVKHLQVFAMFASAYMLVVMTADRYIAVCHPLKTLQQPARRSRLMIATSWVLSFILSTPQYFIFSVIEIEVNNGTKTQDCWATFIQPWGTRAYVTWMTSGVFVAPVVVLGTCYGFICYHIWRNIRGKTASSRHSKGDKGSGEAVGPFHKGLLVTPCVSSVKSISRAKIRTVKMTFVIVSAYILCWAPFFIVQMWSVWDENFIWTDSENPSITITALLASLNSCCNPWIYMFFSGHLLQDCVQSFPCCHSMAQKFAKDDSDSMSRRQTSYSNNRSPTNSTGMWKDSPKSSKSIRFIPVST
Sequence of Vasopressin V1a receptor (Rattus norvegicus) (P30560 whole entry, looked up): as the sequence (P30560 whole entry) above

SMILES: CC(C)[C@@H]1NC(=O)[C@H](Cc2ccccc2)NC(=O)[C@H](C(c2ccccc2)c2ccccc2)NC(=O)CCSSC[C@@H](C(=O)N2CCC[C@H]2C(=O)N[C@H](CCCNC(=N)N)C(=O)NCC(N)=O)NC(=O)[C@H](CC(N)=O)NC1=O (stereo in doubt; form 1) [listing 1 of 2 here]
Activity (Rattus norvegicus [1]): 2.2%
Activity (Rattus norvegicus [2]): 1.8%
Activity (Rattus norvegicus [3]): 100 IU/mg
Activity (Rattus norvegicus [4]): 4500 IU/mg

SMILES: N=C(N)NCCCC(NC(=O)[C@@H]1CCCN1C(=O)[C@@H]1CSSCCC(=O)N[C@@H](Cc2ccc(O)cc2)C(=O)N[C@@H](Cc2ccccc2)C(=O)N[C@@H](CCC(N)=O)C(=O)N[C@@H](CC(N)=O)C(=O)N1)C(=O)NCC(N)=O (single isomer, unassigned) [DESMOPRESSIN]
Activity (Rattus norvegicus [1]): 73.9%
Activity (Rattus norvegicus [2]): 97.3%
Activity (Rattus norvegicus [3]): 1300 IU/mg

Activity [5]: 32 IU/mg
SMILES: CC(C)[C@@H]1NC(=O)[C@H](Cc2ccccc2)NC(=O)[C@H](Cc2ccc(O)cc2)NC(=O)[C@@H](N)CSSC[C@@H](C(=O)N2CCC[C@H]2C(=O)N[C@@H](CCCNC(=N)N)C(=O)NCC(N)=O)NC(=O)[C@H](CC(N)=O)NC1=O (H-CYFVNCPRG-NH2; disulfide 1-6)
Activity (Rattus norvegicus [3]): 758 IU/mg

Kb (Vasopressin V1a receptor): > 1580 nM
SMILES: CC(C)[C@@H]1NC(=O)[C@H](Cc2ccccc2)NC(=O)[C@@H](C(c2ccccc2)c2ccccc2)NC(=O)CCSSC[C@@H](C(=O)N2CCC[C@H]2C(=O)N[C@H](CCCNC(=N)N)C(=O)NCC(N)=O)NC(=O)[C@H](CC(N)=O)NC1=O
Activity (Rattus norvegicus [1]): 200%
Activity (Rattus norvegicus [2]): 150%
Activity (Rattus norvegicus [3]): 9000 IU/mg
Activity (Rattus norvegicus [4]): 450000 IU/mg

SMILES: N=C(N)NCCC[C@@H](NC(=O)[C@@H]1CCCN1C(=O)[C@@H]1CSSCCC(=O)N[C@@H](Cc2ccc(O)cc2)C(=O)N[C@@H](Cc2ccccc2)C(=O)N[C@@H](CCC(N)=O)C(=O)N[C@@H](CC(N)=O)C(=O)N1)C(=O)NCC(N)=O [DESMOPRESSIN]
Activity (Rattus norvegicus [1]): 100%
Activity (Rattus norvegicus [2]): 100%
Activity (Rattus norvegicus [3]): 800 IU/mg

SMILES: NC(=O)CC[C@@H]1NC(=O)[C@H](Cc2ccccc2)NC(=O)[C@H](Cc2ccc(O)cc2)NC(=O)[C@@H](N)CSSC[C@@H](C(=O)N2CCC[C@H]2C(=O)N[C@H](CCCN=C(N)N)C(=O)NCC(N)=O)NC(=O)[C@H](CC(N)=O)NC1=O
Activity (Rattus norvegicus [1]): 23.2%
Activity (Rattus norvegicus [2]): 1.7%
Activity (Rattus norvegicus [3]): 111 IU/mg

SMILES: N=C(N)NCCC[C@@H](NC(=O)[C@@H]1CCCN1C(=O)[C@@H]1CSSCCC(=O)N[C@@H](C(c2ccccc2)c2ccccc2)C(=O)N[C@@H](Cc2ccccc2)C(=O)N[C@@H](CCC(N)=O)C(=O)N[C@@H](CC(N)=O)C(=O)N1)C(=O)NCC(N)=O
Activity (Rattus norvegicus [6]): inactive
Activity (Rattus norvegicus [1]): 0.7%
Activity (Rattus norvegicus [2]): 8%
Activity (Rattus norvegicus [3]): 30 IU/mg
Activity (Rattus norvegicus [4]): 20000 IU/mg

SMILES: N=C(N)NCCC[C@H](NC(=O)[C@@H]1CCCN1C(=O)[C@@H]1CSSCCC(=O)NC(C(c2ccccc2)c2ccccc2)C(=O)N[C@@H](Cc2ccccc2)C(=O)N[C@@H](CCC(N)=O)C(=O)N[C@@H](CC(N)=O)C(=O)N1)C(=O)NCC(N)=O (single isomer, unassigned)
Activity (Rattus norvegicus [1]): 10%
Activity (Rattus norvegicus [2]): 18%
Activity (Rattus norvegicus [3]): 450 IU/mg
Activity (Rattus norvegicus [4]): 45000 IU/mg

SMILES: N=C(N)NCCC[C@H](NC(=O)[C@@H]1CCCN1C(=O)[C@@H]1CSSC2(CCCCC2)CC(=O)N[C@H](C(c2ccccc2)c2ccccc2)C(=O)N[C@@H](Cc2ccccc2)C(=O)N[C@@H](CCC(N)=O)C(=O)N[C@@H](CC(N)=O)C(=O)N1)C(=O)NCC(N)=O
pA2 (Vasopressin V1a receptor): 7.4
pA2 (Oxytocin receptor): 6.83

SMILES: N=C(N)NCCC[C@H](NC(=O)[C@@H]1CCCN1C(=O)[C@@H]1CSSC[C@H](N)C(=O)N[C@@H](Cc2ccc(O)cc2)C(=O)N[C@@H](Cc2ccccc2)C(=O)N[C@@H](CCC(N)=O)C(=O)N[C@@H](CC(N)=O)C(=O)N1)C(=O)NCC(N)=O [VASOPRESSIN]
Activity (Rattus norvegicus [1]): 10%
Activity (Rattus norvegicus [2]): 0.125%
Activity (Rattus norvegicus [3]): 450 IU/mg
Activity (Rattus norvegicus [4]): 450 IU/mg
Vd [7]: 0.067 L/kg

SMILES: N=C(N)NCCC[C@@H](NC(=O)[C@@H]1CCCN1C(=O)[C@@H]1CSSCCC(=O)N[C@H](C(c2ccccc2)c2ccccc2)C(=O)N[C@@H](Cc2ccccc2)C(=O)N[C@@H](CCC(N)=O)C(=O)N[C@@H](CC(N)=O)C(=O)N1)C(=O)NCC(N)=O
Activity (Rattus norvegicus [1]): 200%
Activity (Rattus norvegicus [2]): 100%
Activity (Rattus norvegicus [3]): 9000 IU/mg
Activity (Rattus norvegicus [4]): 225000 IU/mg

Kb (Vasopressin V1a receptor): > 1580 nM
SMILES: CC(C)[C@@H]1NC(=O)[C@H](Cc2ccccc2)NC(=O)[C@@H](C(c2ccccc2)c2ccccc2)NC(=O)CCSSC[C@@H](C(=O)N2CCC[C@H]2C(=O)N[C@@H](CCCNC(=N)N)C(=O)NCC(N)=O)NC(=O)[C@H](CC(N)=O)NC1=O (stereo in doubt)

SMILES: N=C(N)NCCC[C@H](NC(=O)[C@@H]1CCCN1C(=O)[C@@H]1CSSC2(CCCCC2)CC(=O)N[C@@H](C(c2ccccc2)c2ccccc2)C(=O)N[C@@H](Cc2ccccc2)C(=O)N[C@@H](CCC(N)=O)C(=O)N[C@@H](CC(N)=O)C(=O)N1)C(=O)NCC(N)=O
Activity (Rattus norvegicus [6]): inactive
Activity (Rattus norvegicus [1]): <0.1%
Activity (Rattus norvegicus [2]): <0.1%
Activity (Rattus norvegicus [3]): <4.5 IU/mg
Activity (Rattus norvegicus [4]): <4.5 IU/mg

SMILES: CC(C)[C@@H]1NC(=O)[C@H](Cc2ccccc2)NC(=O)[C@H](C(c2ccccc2)c2ccccc2)NC(=O)CCSSC[C@@H](C(=O)N2CCC[C@H]2C(=O)N[C@@H](CCCNC(=N)N)C(=O)NCC(N)=O)NC(=O)[C@H](CC(N)=O)NC1=O
Activity (Rattus norvegicus [6]): inactive
Activity (Rattus norvegicus [1]): 2.2%
Activity (Rattus norvegicus [2]): 8%
Activity (Rattus norvegicus [3]): 100 IU/mg
Activity (Rattus norvegicus [4]): 20000 IU/mg

Activity [5]: 9.4 IU/mg
SMILES: N=C(N)NCCC[C@H](NC(=O)[C@@H]1CCCN1C(=O)[C@@H]1CSSC[C@H](N)C(=O)NC2(Cc3ccccc3C2)C(=O)N[C@@H](Cc2ccccc2)C(=O)N[C@@H](CCC(N)=O)C(=O)N[C@@H](CC(N)=O)C(=O)N1)C(=O)NCC(N)=O (H-C[Aic]FQNCPRG-NH2; disulfide 1-6)
Activity (Rattus norvegicus [1]): 10%
Activity (Rattus norvegicus [2]): 18%
Activity (Rattus norvegicus [3]): 450 IU/mg
Activity (Rattus norvegicus [4]): 45000 IU/mg

SMILES: N=C(N)NCCC[C@H](NC(=O)[C@@H]1CCCN1C(=O)[C@@H]1CSSCCC(=O)N[C@H](C(c2ccccc2)c2ccccc2)C(=O)N[C@@H](Cc2ccccc2)C(=O)N[C@@H](CCC(N)=O)C(=O)N[C@@H](CC(N)=O)C(=O)N1)C(=O)NCC(N)=O
Activity (Rattus norvegicus [6]): inactive
Activity (Rattus norvegicus [1]): 100%
Activity (Rattus norvegicus [2]): 80%
Activity (Rattus norvegicus [3]): 4500 IU/mg
Activity (Rattus norvegicus [4]): 200000 IU/mg

SMILES: N=C(N)NCCC[C@@H](NC(=O)[C@@H]1CCCN1C(=O)[C@@H]1CSSC[C@H](N)C(=O)N[C@@H](C(c2ccccc2)c2ccccc2)C(=O)N[C@@H](Cc2ccccc2)C(=O)N[C@@H](CCC(N)=O)C(=O)N[C@@H](CC(N)=O)C(=O)N1)C(=O)NCC(N)=O
Activity (Rattus norvegicus [6]): inactive
Activity (Rattus norvegicus [1]): 0.7%
Activity (Rattus norvegicus [2]): 1.2%
Activity (Rattus norvegicus [3]): 30 IU/mg
Activity (Rattus norvegicus [4]): 3000 IU/mg

SMILES: CC(C)[C@@H]1NC(=O)[C@H](Cc2ccccc2)NC(=O)[C@H](C(c2ccccc2)c2ccccc2)NC(=O)CCSSC[C@@H](C(=O)N2CCC[C@H]2C(=O)N[C@H](CCCNC(=N)N)C(=O)NCC(N)=O)NC(=O)[C@H](CC(N)=O)NC1=O (stereo in doubt; form 2)
Activity (Rattus norvegicus [1]): 100%
Activity (Rattus norvegicus [2]): 150%
Activity (Rattus norvegicus [3]): 4500 IU/mg
Activity (Rattus norvegicus [4]): 450000 IU/mg

SMILES: CC(C)[C@@H]1NC(=O)[C@H](Cc2ccccc2)NC(=O)[C@H](C(c2ccccc2)c2ccccc2)NC(=O)CCSSC[C@@H](C(=O)N2CCC[C@H]2C(=O)N[C@H](CCCNC(=N)N)C(=O)NCC(N)=O)NC(=O)[C@H](CC(N)=O)NC1=O (stereo in doubt; form 1) [listing 2 of 2 here]
Activity (Rattus norvegicus [6]): inactive
